# Experimental data: patent US9611277B2 (Janssen Pharmaceutica NV, priority 2013, dated 2017)
# Legend:
# rat orexin 1 receptor = rat orexin 1 receptor (Rattus norvegicus, UniProt P56718); experiment: Rat orexin 1 receptor radioligand binding; conditions: rat orexin 1 receptor; averages of 2-20 runs; read-out: rOX1 Ki
# In short: (§1)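 Ki values derive from one-site competition IC50s corrected with the radioligand's predetermined Kd, triplicates per run, averaged over 2-20 runs. Cell homogenates (rat or human OX1R) compete against [^3H]-thiazolyl-oxadiazolyl-pyrrolidine methanone in PBS; 10 μM almorexant sets nonspecific binding; scintillation counting after washing.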
# human orexin 1 receptor = human orexin 1 receptor (Homo sapiens, UniProt O43613); experiment: Human orexin 1 receptor radioligand binding; conditions: human orexin 1 receptor; averages of 2-20 runs; read-out: hOX1 Ki
# In short: as §1
# human orexin 2 receptor = human orexin 2 receptor (Homo sapiens (Human), UniProt O43614); experiment: Human orexin 2 receptor radioligand binding; conditions: human orexin 2 receptor; averages of 2-20 runs; read-out: hOX2 Ki
# Chain of human orexin 2 receptor (O43614 whole entry): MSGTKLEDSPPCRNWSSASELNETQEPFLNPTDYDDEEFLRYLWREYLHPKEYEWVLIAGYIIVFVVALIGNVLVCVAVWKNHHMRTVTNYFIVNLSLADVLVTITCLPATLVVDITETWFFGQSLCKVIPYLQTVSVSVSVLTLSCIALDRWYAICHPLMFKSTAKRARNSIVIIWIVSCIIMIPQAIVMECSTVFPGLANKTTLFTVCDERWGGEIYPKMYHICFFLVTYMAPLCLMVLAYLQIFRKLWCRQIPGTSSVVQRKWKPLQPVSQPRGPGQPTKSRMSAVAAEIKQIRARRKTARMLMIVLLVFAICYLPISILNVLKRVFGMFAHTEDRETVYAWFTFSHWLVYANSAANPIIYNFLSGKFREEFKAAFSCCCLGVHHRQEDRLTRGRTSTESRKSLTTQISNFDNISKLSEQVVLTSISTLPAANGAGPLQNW
# In short: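 Ki derived from one-site competition IC50 using predetermined Kd of [3H]-EMPA, triplicate points, 2-20 runs averaged. Binding done on homogenized HEK293 cells stably expressing human orexin 2 receptor, DMSO ≤0.1%, with 10 μM almorexant defining nonspecific binding; filtered, washed, scintillation counted.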
Structure (SMILES),Ki (rat orexin 1 receptor),Ki (human orexin 1 receptor),Ki (human orexin 2 receptor)
"Cc1ccc(C(=O)N2C[C@H]3C[C@@H](Nc4ccc(C(F)(F)F)cn4)[C@@H]2C3)c(-n2nccn2)n1 [Example 143, (6-methyl-2-(2H-1,2,3-triazol-2-yl)pyridin-3-yl)((1S,4S,6R)-6-((5-(trifluoromethyl)pyridin-2-yl)amino)-2-azabicyclo[2.2.1]heptan-2-yl)methanone]",0.024 µM,0.034 µM,7.3 µM
"O=C(c1cccc(F)c1-n1nccn1)N1C[C@H]2C[C@@H](Nc3ccc(C(F)(F)F)cn3)[C@@H]1C2 [Example 144, (3-fluoro-2-(2H-1,2,3-triazol-2-yl)phenyl)((1S,4S,6R)-6-((5-(trifluoromethyl)pyridin-2-yl)amino)-2-azabicyclo[2.2.1]heptan-2-yl)methanone]",0.003 µM,0.003 µM,0.133 µM
"O=C(c1ccc(F)cc1-n1nccn1)N1C[C@H]2C[C@@H](Nc3ccc(C(F)(F)F)cn3)[C@@H]1C2 [Example 145, (4-fluoro-2-(2H-1,2,3-triazol-2-yl)phenyl)((1S,4S,6R)-6-((5-(trifluoromethyl)pyridin-2-yl)amino)-2-azabicyclo[2.2.1]heptan-2-yl)methanone]",0.017 µM,0.007 µM,0.934 µM
"O=C(c1c(F)cccc1-n1nccn1)N1CC2CC(Nc3ccc(C(F)(F)F)cn3)C1C2 [Example 146, (2-fluoro-6-(2H-1,2,3-triazol-2-yl)phenyl)((1S,4S,6R)-6-((5-(trifluoromethyl)pyridin-2-yl)amino)-2-azabicyclo[2.2.1]heptan-2-yl)methanone]",0.006 µM,0.003 µM,0.15 µM
"O=C(c1c(F)cccc1-c1ncccn1)N1C[C@H]2C[C@@H](Nc3ccc(C(F)(F)F)cn3)[C@@H]1C2 [Example 147, (2-fluoro-6-(pyrimidin-2-yl)phenyl)((1S,4S,6R)-6-((5-(trifluoromethyl)pyridin-2-yl)amino)-2-azabicyclo[2.2.1]heptan-2-yl)methanone]",0.005 µM,0.006 µM,0.19 µM
"Cc1cnc(-c2ncccn2)c(C(=O)N2C[C@H]3C[C@@H](Nc4ccc(C(F)(F)F)cn4)[C@@H]2C3)c1 [Example 151, (5-methyl-2-(pyrimidin-2-yl)pyridin-3-yl)((1S,4S,6R)-6-((5-(trifluoromethyl)pyridin-2-yl)amino)-2-azabicyclo[2.2.1]heptan-2-yl)methanone]",0.021 µM,0.047 µM,5.1 µM
"Cc1noc(-c2cc(F)ccc2C(=O)N2C[C@H]3C[C@@H](Nc4ccc(C(F)(F)F)cn4)[C@@H]2C3)n1 [Example 152, (4-fluoro-2-(3-methyl-1,2,4-oxadiazol-5-yl)phenyl)((1S,4S,6R)-6-((5-(trifluoromethyl)pyridin-2-yl)amino)-2-azabicyclo[2.2.1]heptan-2-yl)methanone]",0.03 µM,0.016 µM,1.6 µM
"CN(c1ccc(C(F)(F)F)cn1)[C@@H]1C[C@H]2C[C@@H]1N(C(=O)c1ccccc1-n1nccn1)C2 [Example 153, (2-(2H-1,2,3-triazol-2-yl)phenyl)((1S,4S,6R)-6-(methyl(5-(trifluoromethyl)pyridin-2-yl)amino)-2-azabicyclo[2.2.1]heptan-2-yl)methanone]",0.003 µM,0.003 µM,0.342 µM
"CN(c1ccc(C(F)(F)F)cn1)[C@@H]1C[C@H]2C[C@@H]1N(C(=O)c1cc(F)ccc1-n1nccn1)C2 [Example 155, (5-fluoro-2-(2H-1,2,3-triazol-2-yl)phenyl)((1S,4S,6R)-6-(methyl(5-(trifluoromethyl)pyridin-2-yl)amino)-2-azabicyclo[2.2.1]heptan-2-yl)methanone]",0.005 µM,0.003 µM,0.303 µM
"CN(c1ccc(C(F)(F)F)cn1)[C@@H]1C[C@H]2C[C@@H]1N(C(=O)c1c(F)cccc1-c1ncccn1)C2 [Example 159, (2-fluoro-6-(pyrimidin-2-yl)phenyl)((1S,4S,6R)-6-(methyl(5-(trifluoromethyl)pyridin-2-yl)amino)-2-azabicyclo[2.2.1]heptan-2-yl)methanone]",0.006 µM,0.004 µM,0.209 µM
CCN(c1ccc(C(F)(F)F)cn1)C1CC2CC1N(C(=O)c1cccc(F)c1-c1ncccn1)C2 (stereo not drawn) [Example 160],0.009 µM,0.006 µM,0.208 µM
"O=C(c1cccc(F)c1-c1ncccn1)N1C[C@H]2C[C@@H](N(CC3CC3)c3ccc(C(F)(F)F)cn3)[C@@H]1C2 [Example 161, ((1S,4S,6R)-6-((cyclopropylmethyl)(5-(trifluoromethyl)pyridin-2-yl)amino)-2-azabicyclo[2.2.1]heptan-2-yl)(3-fluoro-2-(pyrimidin-2-yl)phenyl)methanone]",0.014 µM,0.005 µM,0.384 µM

# More lines, in order of falling Ki (rat orexin 1 receptor), values ahead:
Ki (rat orexin 1 receptor),Ki (human orexin 1 receptor),Ki (human orexin 2 receptor),Structure (SMILES)
0.014 µM,0.007 µM,4.6 µM,"Cc1cnc(C(=O)N2C[C@H]3C[C@@H](Nc4ccc(C(F)(F)F)cn4)[C@@H]2C3)c(-c2ncccn2)c1 [Example 149, (5-methyl-3-(pyrimidin-2-yl)pyridin-2-yl)((1S,4S,6R)-6-((5-(trifluoromethyl)pyridin-2-yl)amino)-2-azabicyclo[2.2.1]heptan-2-yl)methanone]"
0.013 µM,0.009 µM,0.088 µM,"Cc1ccc(-c2ncccn2)c(C(=O)N2C[C@H]3C[C@@H](Nc4ccc(C(F)(F)F)cn4)[C@@H]2C3)n1 [Example 150, (6-methyl-3-(pyrimidin-2-yl)pyridin-2-yl)((1S,4S,6R)-6-((5-(trifluoromethyl)pyridin-2-yl)amino)-2-azabicyclo[2.2.1]heptan-2-yl)methanone]"
0.007 µM,0.005 µM,0.274 µM,"Cc1ccc(-n2nccn2)c(C(=O)N2C[C@H]3C[C@@H](N(C)c4ccc(C(F)(F)F)cn4)[C@@H]2C3)n1 [Example 156, ((1S,4S,6R)-6-(methyl(5-(trifluoromethyl)pyridin-2-yl)amino)-2-azabicyclo[2.2.1]heptan-2-yl)(6-methyl-3-(2H-1,2,3-triazol-2-yl)pyridin-2-yl)methanone]"
0.005 µM,0.002 µM,0.34 µM,"CN(c1ccc(C(F)(F)F)cn1)[C@@H]1C[C@H]2C[C@@H]1N(C(=O)c1cc(F)ccc1-c1ncccn1)C2 [Example 158, (5-fluoro-2-(pyrimidin-2-yl)phenyl)((1S,4S,6R)-6-(methyl(5-(trifluoromethyl)pyridin-2-yl)amino)-2-azabicyclo[2.2.1]heptan-2-yl)methanone]"
0.004 µM,0.006 µM,0.329 µM,"CN(c1ccc(C(F)(F)F)cn1)[C@@H]1C[C@H]2C[C@@H]1N(C(=O)c1cccc(F)c1-n1nccn1)C2 [Example 154, (3-fluoro-2-(2H-1,2,3-triazol-2-yl)phenyl)((1S,4S,6R)-6-(methyl(5-(trifluoromethyl)pyridin-2-yl)amino)-2-azabicyclo[2.2.1]heptan-2-yl)methanone]"
0.003 µM,0.005 µM,0.189 µM,"O=C(c1ccccc1-c1ncccn1)N1C[C@H]2C[C@@H](Nc3ccc(C(F)(F)F)cn3)[C@@H]1C2 [Example 148, (2-(pyrimidin-2-yl)phenyl)((1S,4S,6R)-6-((5-(trifluoromethyl)pyridin-2-yl)amino)-2-azabicyclo[2.2.1]heptan-2-yl)methanone]"
